Laboratory results published in the supplement of paper PMC11451515.

What was measured:
Conditions in all cases: 48 h
SEM cells [1] = assay: cell viability relative to DMSO control; higher = less cytotoxic
Procedure, shortened: (§1)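 Library compounds in DMSO were pin-dosed in an 11-point threefold series (47 μM to 0.79 nM) onto leukemia cells in 1536-well plates (5 μl). Plates held 500 cells/well of NOMO1 or SEM or 1000 cells/well of P12-Ichikawa, each adapted for at least four passages in each medium. Luminescence was read with CellTiter-Glo One after 48 h at 37°C. Viability means the per-plate percentage relative to DMSO wells, using cell-free wells as background.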

P12-Ichikawa [2] = assay: as above
Procedure, shortened: as §1

NOMO1 [3] = assay: as above
Procedure, shortened: as §1

SEM cells [4] = assay: AUC of viability dose-response curve (% viability x log10 dose units); higher = less sensitive
Procedure, shortened: (§2)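 Leukemia cells adapted to each medium were seeded in 1536-well plates (500 or 1000 cells/well) and given library compounds in DMSO for 48 h at 37°C. The 11 threefold doses spanned 47 μM to 0.79 nM, and CellTiter-Glo One luminescence was normalised per plate to DMSO and cell-free wells before four-parameter log-logistic fitting on log10 dose. Area under the curve was integrated with the trapezoidal rule, scaling curves above full viability and removing curves that failed quality control.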

P12-Ichikawa [5] = assay: as above
Procedure, shortened: as §2

NOMO1 [6] = assay: as above
Procedure, shortened: as §2

CCc1nc(C(N)=O)c(Nc2ccc(N3CCC(N4CCN(C)CC4)CC3)c(OC)c2)nc1NC1CCOCC1
cell viability [%]
Conditions | NOMO1 [3] | P12-Ichikawa [2] | SEM cells [1]
HPLM + 10% dialyzed FBS, 0.000781 µM | – | 106 | 92.9
HPLM + 10% dialyzed FBS, 0.00234 µM | – | 103 | 105
HPLM + 10% dialyzed FBS, 0.00702 µM | – | 111 | 120
HPLM + 10% dialyzed FBS, 0.0211 µM | – | 111 | 104
HPLM + 10% dialyzed FBS, 0.0632 µM | – | 114 | 95.5
HPLM + 10% dialyzed FBS, 0.19 µM | – | 97.4 | 65
HPLM + 10% dialyzed FBS, 0.569 µM | – | 97.7 | 42.9
HPLM + 10% dialyzed FBS, 1.71 µM | – | 102 | 36.3
HPLM + 10% dialyzed FBS, 5.12 µM | – | 91.7 | 21.1
HPLM + 10% dialyzed FBS, 15.4 µM | – | 75.1 | 17.8
HPLM + 10% dialyzed FBS, 46.1 µM | – | 52.6 | 14.6
RPMI 5 mM glucose + 10% FBS, 0.000781 µM | 99.1 | 103 | –
RPMI 5 mM glucose + 10% FBS, 0.00234 µM | 103 | 101 | –
RPMI 5 mM glucose + 10% FBS, 0.00702 µM | 109 | 109 | –
RPMI 5 mM glucose + 10% FBS, 0.0211 µM | 124 | 117 | –
RPMI 5 mM glucose + 10% FBS, 0.0632 µM | 104 | 112 | –
RPMI 5 mM glucose + 10% FBS, 0.19 µM | 112 | 100 | –
RPMI 5 mM glucose + 10% FBS, 0.569 µM | 103 | 98.7 | –
RPMI 5 mM glucose + 10% FBS, 1.71 µM | 93.7 | 102 | –
RPMI 5 mM glucose + 10% FBS, 5.12 µM | 64.2 | 88.9 | –
RPMI 5 mM glucose + 10% FBS, 15.4 µM | 55.8 | 71.1 | –
RPMI 5 mM glucose + 10% FBS, 46.1 µM | 43.1 | 52.3 | –
RPMI 5 mM glucose + 10% dialyzed FBS, 0.000781 µM | 124 | 110 | 115
RPMI 5 mM glucose + 10% dialyzed FBS, 0.00234 µM | 112 | 109 | 97.9
RPMI 5 mM glucose + 10% dialyzed FBS, 0.00702 µM | 101 | 123 | 138
RPMI 5 mM glucose + 10% dialyzed FBS, 0.0211 µM | 123 | 111 | 139
RPMI 5 mM glucose + 10% dialyzed FBS, 0.0632 µM | 147 | 131 | 94
RPMI 5 mM glucose + 10% dialyzed FBS, 0.19 µM | 99.9 | 104 | 69.6
RPMI 5 mM glucose + 10% dialyzed FBS, 0.569 µM | 77.9 | 108 | 43
RPMI 5 mM glucose + 10% dialyzed FBS, 1.71 µM | 78.7 | 110 | 33.1
RPMI 5 mM glucose + 10% dialyzed FBS, 5.12 µM | 57.5 | 94.8 | 17
RPMI 5 mM glucose + 10% dialyzed FBS, 15.4 µM | 38.1 | 75.9 | 18.3
RPMI 5 mM glucose + 10% dialyzed FBS, 46.1 µM | 33.3 | 42.1 | 12.2

AUC of viability dose-response curve
Conditions | NOMO1 [6] | P12-Ichikawa [5] | SEM cells [4]
HPLM + 10% dialyzed FBS | 389 | 438 | 291
RPMI 5 mM glucose + 10% FBS | 410 | 436 | 285
RPMI 5 mM glucose + 10% dialyzed FBS | 363 | 434 | 277

CC(C)(OCc1nn(Cc2ccccc2)c2ccccc12)C(=O)O
cell viability [%]
Conditions | NOMO1 [3] | P12-Ichikawa [2] | SEM cells [1]
HPLM + 10% dialyzed FBS, 0.000781 µM | 101 | 104 | 100
HPLM + 10% dialyzed FBS, 0.00234 µM | 99.8 | 101 | 101
HPLM + 10% dialyzed FBS, 0.00702 µM | 108 | 101 | 95.4
HPLM + 10% dialyzed FBS, 0.0211 µM | 116 | 104 | 103
HPLM + 10% dialyzed FBS, 0.0632 µM | 120 | 102 | 116
HPLM + 10% dialyzed FBS, 0.19 µM | 84.4 | 96 | 97.4
HPLM + 10% dialyzed FBS, 0.569 µM | 108 | 103 | 108
HPLM + 10% dialyzed FBS, 1.71 µM | 114 | 101 | 100
HPLM + 10% dialyzed FBS, 5.12 µM | 88.8 | 101 | 97.5
HPLM + 10% dialyzed FBS, 15.4 µM | 85.2 | 96.3 | 109
HPLM + 10% dialyzed FBS, 46.1 µM | 99.1 | 105 | 92.6
RPMI 5 mM glucose + 10% FBS, 0.000781 µM | 84.4 | 99.3 | 99.4
RPMI 5 mM glucose + 10% FBS, 0.00234 µM | 89.3 | 92.4 | 95.2
RPMI 5 mM glucose + 10% FBS, 0.00702 µM | 98.8 | 104 | 116
RPMI 5 mM glucose + 10% FBS, 0.0211 µM | 96 | 95.9 | 101
RPMI 5 mM glucose + 10% FBS, 0.0632 µM | 93 | 101 | 109
RPMI 5 mM glucose + 10% FBS, 0.19 µM | 92.2 | 88.6 | 93.9
RPMI 5 mM glucose + 10% FBS, 0.569 µM | 99.9 | 98.6 | 94
RPMI 5 mM glucose + 10% FBS, 1.71 µM | 94.2 | 94.9 | 112
RPMI 5 mM glucose + 10% FBS, 5.12 µM | 89.8 | 96.2 | 109
RPMI 5 mM glucose + 10% FBS, 15.4 µM | 96.8 | 92.8 | 96
RPMI 5 mM glucose + 10% FBS, 46.1 µM | 83.4 | 94.5 | 96.5
RPMI 5 mM glucose + 10% dialyzed FBS, 0.000781 µM | 96.2 | 97.1 | 94.7
RPMI 5 mM glucose + 10% dialyzed FBS, 0.00234 µM | 91.5 | 89.1 | 103
RPMI 5 mM glucose + 10% dialyzed FBS, 0.00702 µM | 93.3 | 95.8 | 107
RPMI 5 mM glucose + 10% dialyzed FBS, 0.0211 µM | 108 | 90.1 | 104
RPMI 5 mM glucose + 10% dialyzed FBS, 0.0632 µM | 91.6 | 92.6 | 97.1
RPMI 5 mM glucose + 10% dialyzed FBS, 0.19 µM | 106 | 84.6 | 102
RPMI 5 mM glucose + 10% dialyzed FBS, 0.569 µM | 102 | 87.9 | 115
RPMI 5 mM glucose + 10% dialyzed FBS, 1.71 µM | 83.6 | 89.3 | 100
RPMI 5 mM glucose + 10% dialyzed FBS, 5.12 µM | 111 | 88.8 | 104
RPMI 5 mM glucose + 10% dialyzed FBS, 15.4 µM | 95.4 | 85.8 | 103
RPMI 5 mM glucose + 10% dialyzed FBS, 46.1 µM | 97.4 | 85 | 96.4

AUC of viability dose-response curve
Conditions | NOMO1 [6] | P12-Ichikawa [5] | SEM cells [4]
HPLM + 10% dialyzed FBS | 460 | 473 | 475
RPMI 5 mM glucose + 10% FBS | 442 | 459 | 471
RPMI 5 mM glucose + 10% dialyzed FBS | 467 | 427 | 477
